Laboratory results published in patent US20210254056A1, “IDENTIFICATION AND TARGETED MODULATION OF GENE SIGNALING NETWORKS” (CAMP4 THERAPEUTICS CORPORATION, priority 2017, published 2021).
Read-outs that look alike come from different tables or passages of the source.

What was measured:
[1] = system: Early erythroblast progenitor cells derived from cord blood; experiment: Reversion of immortality after doxycycline withdrawal (qRT-PCR, cell size); assay type: cell-based, human
hepatocytes [2] = experiment: qRT-PCR validation of the Example 12 RNA-seq results;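 also: Compound-treated versus DMSO control, target Ct normalized to GAPDH or β-actin reference (ΔΔCt method), positive values mean higher expression than DMSO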
hepatocytes [3] = experiment: RNA-seq of hepatocytes stimulated with the compounds of Table 68
[4] = sample D2-dox+ (day 2, on doxycycline; reference)
[5] = sample D6-dox− (6 days after doxycycline withdrawn)
[6] = hepatocytes stimulated with the compound, RNA-seq, significance: FPKM≥1, q-value≤0.05, log 2 fold change≥1.5
[7] = sample D2-Dox− (2 days after doxycycline withdrawn)
[8] = sample D3-Dox− (3 days after doxycycline withdrawn)
[9] = sample D4-Dox− (4 days after doxycycline withdrawn)
[10] = sample D5-Dox− (5 days after doxycycline withdrawn)

Molecule: C[C@H]1c2cccc(O)c2C(=O)C2=C(O)[C@]3(O)C(=O)C(C(N)=O)=C(O)[C@@H](N(C)C)[C@@H]3[C@@H](O)[C@@H]21 [dox]
- RQ of ALAS2 [1, 4]: 1.00
- RQ of BCLXL [1, 4]: 1.00
- RQ of HBB [1, 4]: 1.00
- RQ of MYC [1, 4]: 1.00
- RQ of p21 [1, 4]: 1.00
- RQ of p53 [1, 4]: 1.00
- RQ (relative quantification of expression) of RPS19 ([1]; sample D2-dox+ (day 2, on doxycycline; reference), B-ACTIN control): 1.00
- RQ of ALAS2 [1, 5]: 0.17
- RQ of BCLXL [1, 5]: 0.03
- RQ of HBB [1, 5]: 0.57
- RQ of MYC [1, 5]: 0.03
- RQ of RPS19 [1, 5]: 0.21
- RQ of p21 [1, 5]: 1.14
- RQ of p53 [1, 5]: 0.16

Molecule: C[C@]12C=CC(=O)C=C1CC[C@@H]1[C@@H]2C(=O)C[C@@]2(C)[C@H]1CC[C@]2(O)C(=O)CO [MT-861, Prednisone]
- qRT-PCR log2fc, AMACR (hepatocytes [2]; log 2 fold change in AMACR gene expression): −0.35
- qRT-PCR log2fc, ARG1 (hepatocytes [2]; log 2 fold change in ARG1 gene expression): 1.53
- qRT-PCR log2fc, CA2 (hepatocytes [2]; log 2 fold change in CA2 gene expression): −0.1
- qRT-PCR log2fc, CIDEC (hepatocytes [2]; log 2 fold change in CIDEC gene expression): 1.1
- qRT-PCR log2fc, CPS1 (hepatocytes [2]; log 2 fold change in CPS1 gene expression): 0.61
- qRT-PCR log2fc, ENO3 (hepatocytes [2]; log 2 fold change in ENO3 gene expression): −0.03
- qRT-PCR log2fc, G6PC (hepatocytes [2]; log 2 fold change in G6PC gene expression): 0.76
- qRT-PCR log2fc, GYS2 (hepatocytes [2]; log 2 fold change in GYS2 gene expression): 0.71
- qRT-PCR log2fc, HGD (hepatocytes [2]; log 2 fold change in HGD gene expression): 0.5
- qRT-PCR log2fc, HOGA1 (hepatocytes [2]; log 2 fold change in HOGA1 gene expression): 1.47
- qRT-PCR log2fc, HPGD (hepatocytes [2]; log 2 fold change in HPGD gene expression): 0.36
- qRT-PCR log2fc, NCF2 (hepatocytes [2]; log 2 fold change in NCF2 gene expression): −0.4
- qRT-PCR log2fc, RMRP (hepatocytes [2]; log 2 fold change in RMRP gene expression): −0.33
- qRT-PCR log2fc, SLC37A4 (hepatocytes [2]; log 2 fold change in SLC37A4 gene expression): 0.99
- qRT-PCR log2fc, TAT (hepatocytes [2]; log 2 fold change in TAT gene expression): 3.26
- qRT-PCR log2fc, TDO2 (hepatocytes [2]; log 2 fold change in TDO2 gene expression): 1.41
- Cuffdiff log2fc, AMACR (hepatocytes [3]; log 2 fold change in AMACR gene expression, hepatocytes, RNA-seq, Cuffdiff): −1.4
- DESeq log2fc, AMACR (hepatocytes [3]; log 2 fold change in AMACR gene expression, hepatocytes, RNA-seq, DESeq): −1.24
- Cuffdiff log2fc, ARG1 (hepatocytes [3]; log 2 fold change in ARG1 gene expression, hepatocytes, RNA-seq, Cuffdiff): 1.48
- DESeq log2fc, ARG1 (hepatocytes [3]; log 2 fold change in ARG1 gene expression, hepatocytes, RNA-seq, DESeq): 1.59
- Cuffdiff log2fc, CA2 (hepatocytes [3]; log 2 fold change in CA2 gene expression, hepatocytes, RNA-seq, Cuffdiff): −1.05
- DESeq log2fc, CA2 (hepatocytes [3]; log 2 fold change in CA2 gene expression, hepatocytes, RNA-seq, DESeq): −0.95
- Cuffdiff log2fc, CIDEC (hepatocytes [3]; log 2 fold change in CIDEC gene expression, hepatocytes, RNA-seq, Cuffdiff): 1.02
- DESeq log2fc, CIDEC (hepatocytes [3]; log 2 fold change in CIDEC gene expression, hepatocytes, RNA-seq, DESeq): 1.19
- Cuffdiff log2fc, CPS1 (hepatocytes [3]; log 2 fold change in CPS1 gene expression, hepatocytes, RNA-seq, Cuffdiff): 2.14
- DESeq log2fc, CPS1 (hepatocytes [3]; log 2 fold change in CPS1 gene expression, hepatocytes, RNA-seq, DESeq): 2.17
- Cuffdiff log2fc, ENO3 (hepatocytes [3]; log 2 fold change in ENO3 gene expression, hepatocytes, RNA-seq, Cuffdiff): −1.24
- DESeq log2fc, ENO3 (hepatocytes [3]; log 2 fold change in ENO3 gene expression, hepatocytes, RNA-seq, DESeq): −1.03
- Cuffdiff log2fc, G6PC (hepatocytes [3]; log 2 fold change in G6PC gene expression, hepatocytes, RNA-seq, Cuffdiff): 1.02
- DESeq log2fc, G6PC (hepatocytes [3]; log 2 fold change in G6PC gene expression, hepatocytes, RNA-seq, DESeq): 1.03
- Cuffdiff log2fc, GYS2 (hepatocytes [3]; log 2 fold change in GYS2 gene expression, hepatocytes, RNA-seq, Cuffdiff): 2.21
- DESeq log2fc, GYS2 (hepatocytes [3]; log 2 fold change in GYS2 gene expression, hepatocytes, RNA-seq, DESeq): 2.49
- Cuffdiff log2fc, HGD (hepatocytes [3]; log 2 fold change in HGD gene expression, hepatocytes, RNA-seq, Cuffdiff): 1.23
- DESeq log2fc, HGD (hepatocytes [3]; log 2 fold change in HGD gene expression, hepatocytes, RNA-seq, DESeq): 1.31
- Cuffdiff log2fc, HOGA1 (hepatocytes [3]; log 2 fold change in HOGA1 gene expression, hepatocytes, RNA-seq, Cuffdiff): 1
- DESeq log2fc, HOGA1 (hepatocytes [3]; log 2 fold change in HOGA1 gene expression, hepatocytes, RNA-seq, DESeq): 1.04
- Cuffdiff log2fc, HPGD (hepatocytes [3]; log 2 fold change in HPGD gene expression, hepatocytes, RNA-seq, Cuffdiff): 2.07
- DESeq log2fc, HPGD (hepatocytes [3]; log 2 fold change in HPGD gene expression, hepatocytes, RNA-seq, DESeq): 2.29
- Cuffdiff log2fc, NCF2 (hepatocytes [3]; log 2 fold change in NCF2 gene expression, hepatocytes, RNA-seq, Cuffdiff): −1.71
- DESeq log2fc, NCF2 (hepatocytes [3]; log 2 fold change in NCF2 gene expression, hepatocytes, RNA-seq, DESeq): −1.6
- Cuffdiff log2fc, RMRP (hepatocytes [3]; log 2 fold change in RMRP gene expression, hepatocytes, RNA-seq, Cuffdiff): −1.43
- DESeq log2fc, RMRP (hepatocytes [3]; log 2 fold change in RMRP gene expression, hepatocytes, RNA-seq, DESeq): −0.78
- Cuffdiff log2fc, SLC37A4 (hepatocytes [3]; log 2 fold change in SLC37A4 gene expression, hepatocytes, RNA-seq, Cuffdiff): 1.16
- DESeq log2fc, SLC37A4 (hepatocytes [3]; log 2 fold change in SLC37A4 gene expression, hepatocytes, RNA-seq, DESeq): 1.18
- Cuffdiff log2fc, TAT (hepatocytes [3]; log 2 fold change in TAT gene expression, hepatocytes, RNA-seq, Cuffdiff): 2.37
- DESeq log2fc, TAT (hepatocytes [3]; log 2 fold change in TAT gene expression, hepatocytes, RNA-seq, DESeq): 2.48
- Cuffdiff log2fc, TDO2 (hepatocytes [3]; log 2 fold change in TDO2 gene expression, hepatocytes, RNA-seq, Cuffdiff): 1.05
- DESeq log2fc, TDO2 (hepatocytes [3]; log 2 fold change in TDO2 gene expression, hepatocytes, RNA-seq, DESeq): 1.21

Molecule: COc1cc2c(cc1OC)-c1c(OC)c(OC)cc3ccnc(c13)C2=O [Oxoglaucine]
- # of genes having significantly altered expression (hepatocytes [3]; [6]): 31

Molecule: C[C@H]1c2cccc(O)c2C(=O)C2=C(O)[C@]3(O)C(=O)C(C(N)=O)=C(O)[C@@H](N(C)C)[C@@H]3[C@@H](O)[C@@H]21 [Dox]
- RQ of ALAS2 [1, 7]: 2.98
- RQ of BCLXL [1, 7]: 0.29
- RQ of HBB [1, 7]: 7.81
- RQ of MYC [1, 7]: 0.04
- RQ of RPS19 [1, 7]: 0.28
- RQ of p21 [1, 7]: 2.31
- RQ of p53 [1, 7]: 0.40
- RQ of ALAS2 [1, 8]: 1.44
- RQ of BCLXL [1, 8]: 0.11
- RQ of HBB [1, 8]: 5.57
- RQ of MYC [1, 8]: 0.03
- RQ of RPS19 [1, 8]: 0.21
- RQ of p21 [1, 8]: 1.05
- RQ of p53 [1, 8]: 0.21
- RQ of ALAS2 [1, 9]: 0.94
- RQ of BCLXL [1, 9]: 0.07
- RQ of HBB [1, 9]: 4.89
- RQ of MYC [1, 9]: 0.06
- RQ of RPS19 [1, 9]: 0.28
- RQ of p21 [1, 9]: 2.03
- RQ of p53 [1, 9]: 0.22
- RQ of ALAS2 [1, 10]: 0.40
- RQ of BCLXL [1, 10]: 0.04
- RQ of HBB [1, 10]: 2.13
- RQ of MYC [1, 10]: 0.06
- RQ of RPS19 [1, 10]: 0.27
- RQ of p21 [1, 10]: 1.61
- RQ of p53 [1, 10]: 0.20

Molecule: CC1(C)CCC(c2ccc(Cl)cc2)=C(CN2CCN(c3ccc(C(=O)NS(=O)(=O)c4ccc(N[C@H](CCN5CCOCC5)CSc5ccccc5)c(S(=O)(=O)C(F)(F)F)c4)cc3)CC2)C1 [ABT-263]
- # of genes having significantly altered expression (hepatocytes [3]; [6]): 1

Molecule: Cc1c(C(=O)NN2CCCCC2)nn(-c2ccc(Cl)cc2Cl)c1-c1ccc(Cl)cc1 [Rimonabant]
- # of genes having significantly altered expression (hepatocytes [3]; [6]): 1392

Molecule: CCOC(=O)c1cncn1[C@H](C)c1ccccc1 [Etomidate]
- # of genes having significantly altered expression (hepatocytes [3]): 2

Molecule: COCCOCOc1cc2ccc(-c3ccc(C(=O)O)cc3)cc2cc1C12CC3CC(CC(C3)C1)C2 [CD 2665]
- # of genes having significantly altered expression (hepatocytes [3]): 1102

Molecule: COc1ccc2[nH]c([S+]([O-])Cc3ncc(C)c(OC)c3C)nc2c1 (stereo not shown) [Omeprazole]
- # of genes having significantly altered expression (hepatocytes [3]; [6]): 61

Molecule: Cc1nc(Nc2ncc(C(=O)Nc3c(C)cccc3Cl)s2)cc(N2CCN(CCO)CC2)n1 [Dasatinib]
- # of genes having significantly altered expression (hepatocytes [3]; [6]): 2970

Molecule: c1ccc2c(-c3cnn4cc(-c5ccc(N6CCNCC6)cc5)cnc34)ccnc2c1 [LDN193189]
- # of genes having significantly altered expression (hepatocytes [3]): 67

Molecule: CCCCCCCCCCCCCCCCOC[C@H](COP(=O)([O-])OCC[N+](C)(C)C)OC(C)=O [PAF-C-16]
- # of genes having significantly altered expression (hepatocytes [3]): 7

Molecule: CCCCCCCCCCCC(=O)OC[C@H](COP(=O)([O-])OCC[N+](C)(C)C)OC(=O)CCCCCCCCCCC [DLPC]
- # of genes having significantly altered expression (hepatocytes [3]): 4

Molecule: NCCc1c[nH]cn1 [Histamine]
- # of genes having significantly altered expression (hepatocytes [3]; [6]): 20

B1: Anti-mullerian hormone (protein, UniProt P03971 452-560, looked up)
Muellerian-inhibiting factor: SAGATAADGPCALRELSVDLRAERSVLIPETYQANNCQGVCGWPQSDRNPRYGNHVVLLLKMQVRGAALARPPCCVPTAYAGKLLISLSEERISAHHVPNMVATECGCR
- # of genes having significantly altered expression (hepatocytes [3]; [6]): 912

B2: Nodal (protein, UniProt Q96S42 238-347, looked up)
Nodal homolog: HHLPDRSQLCRKVKFQVDFNLIGWGSWIIYPKQYNAYRCEGECPNPVGEEFHPTNHAYIQSLLKRYQPHRVPSTCCAPVKTKPLSMLYVDNGRVLLDHHKDMIVEECGCL
- # of genes having significantly altered expression (hepatocytes [3]; [6]): 863

B3: Wnt3a (protein, UniProt P56704 19-352, looked up)
Protein Wnt-3a: SYPIWWSLAVGPQYSSLGSQPILCASIPGLVPKQLRFCRNYVEIMPSVAEGIKIGIQECQHQFRGRRWNCTTVHDSLAIFGPVLDKATRESAFVHAIASAGVAFAVTRSCAEGTAAICGCSSRHQGSPGKGWKWGGCSEDIEFGGMVSREFADARENRPDARSAMNRHNNEAGRQAIASHMHLKCKCHGLSGSCEVKTCWWSQPDFRAIGDFLKDKYDSASEMVVEKHRESRGWVETLRPRYTYFKVPTERDLVYYEASPNFCEPNPETGSFGTRDRTCNVSSHGIDGCDLLCCGRGHNARAERRREKCRCVFHWCCYVSCQECTRVYDVHTCK
- # of genes having significantly altered expression (hepatocytes [3]; [6]): 1142

B4: BMP4 (protein, UniProt P12644 293-408, looked up)
Bone morphogenetic protein 4: SPKHHSQRARKKNKNCRRHSLYVDFSDVGWNDWIVAPPGYQAFYCHGDCPFPLADHLNSTNHAIVQTLVNSVNSSIPKACCVPTELSAISMLYLDEYDKVVLKNYQEMVVEGCGCR
- # of genes having significantly altered expression (hepatocytes [3]; [6]): 2218

B5: GDF10 (BMP3b) (protein, UniProt P55107 369-478, looked up)
Growth/differentiation factor …: QWDEPRVCSRRYLKVDFADIGWNEWIISPKSFDAYYCAGACEFPMPKIVRPSNHATIQSIVRAVGIIPGIPEPCCVPDKMNSLGVLFLDENRNVVLKVYPNMSVDTCACR
- # of genes having significantly altered expression (hepatocytes [3]; [6]): 855
